≈ marks a conversion by molar mass, not a printed value.
Tests used:
[1] = Cytotoxicity against HEK293 cells assessed as inhibition of cell viability at 25 ug/ml after 48 hrs by MTT assay relative to control; type: cell-based; settings: human, read-out: INH
[2] = biological target: T1, Enoyl-[acyl-carrier-protein] reductase [NADH] (Mycobacterium tuberculosis) (UniProt P9WGR1); test: Inhibition of replicating Mycobacterium tuberculosis H37Rv InhA assessed as cell growth inhibition after 7 days by MABA method
T1 sequence (whole entry): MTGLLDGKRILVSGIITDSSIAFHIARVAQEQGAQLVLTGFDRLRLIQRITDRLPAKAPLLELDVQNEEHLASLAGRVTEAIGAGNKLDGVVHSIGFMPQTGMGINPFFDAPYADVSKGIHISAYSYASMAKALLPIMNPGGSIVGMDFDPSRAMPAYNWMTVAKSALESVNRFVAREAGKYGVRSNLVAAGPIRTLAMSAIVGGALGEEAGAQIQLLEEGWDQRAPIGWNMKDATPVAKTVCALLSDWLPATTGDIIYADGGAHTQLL

| Compound | cytotoxicity at 48 h, 25 ug/ml [1] [%] | MIC [2] [µg/mL] |
| --- | --- | --- |
| CSc1ccc(-c2ccc(C(=O)NNC(=O)c3ccccc3F)o2)cc1 | 16.9 | 6.25 (≈ 16.9 µM) |
| NNC(=O)c1ccncc1 |  | 0.1 (≈ 0.729 µM) |
| COc1ccc(C(=O)NNC(=O)c2ccc(-c3ccc(SC)cc3)o2)cc1 | 17.4 | 0.78 (≈ 2.04 µM) |
| O=C(NNC(=O)[C@H](Cc1ccc(O)cc1)NC(=O)c1ccc(-c2ccc(F)cc2)s1)c1ccc(Cl)cc1 | 17 | 0.78 (≈ 1.45 µM) |
| CC(C)(C)c1ccc(C(=O)NNC(=O)[C@H](Cc2ccc(O)cc2)NC(=O)c2ccc(-c3ccccc3)o2)cc1 | 18.7 | 0.78 (≈ 1.48 µM) |
| CSc1ccc(-c2ccc(C(=O)NNC(=O)c3ccco3)o2)cc1 | 11.6 | 6.25 (≈ 18.3 µM) |
| CO[C@H]1/C=C/O[C@@]2(C)Oc3c(C)c(O)c4c(O)c(c(/C=N/N5CCN(C)CC5)c(O)c4c3C2=O)NC(=O)/C(C)=C\C=C\[C@H](C)[C@H](O)[C@@H](C)[C@@H](O)[C@@H](C)[C@H](OC(C)=O)[C@@H]1C |  | 0.2 (≈ 0.243 µM) |
| O=C(NNC(=O)[C@H](Cc1ccc(O)cc1)NC(=O)c1ccc(Br)o1)c1ccc(Cl)cc1 |  | 12.5 (≈ 24.7 µM) |
| O=C(NNc1nc2ccccc2s1)c1ccc(-c2ccccc2)o1 |  | 25 (≈ 74.5 µM) |
| CC(C)(C)c1ccc(C(=O)NNC(=O)[C@H](Cc2ccc(O)cc2)NC(=O)c2ccc(Br)o2)cc1 | 26.6 | 3.12 (≈ 5.91 µM) |
| COc1ccc(C(=O)NNC(=O)c2ccc(-c3ccccc3SC)s2)cc1 |  | > 25 |
| Cc1ccc(C(=O)NNC(=O)c2ccc(-c3ccccc3S(C)(=O)=O)o2)cc1 | 22.9 | 3.12 (≈ 7.84 µM) |
| CC[C@@H](CO)NCCN[C@@H](CC)CO |  | 1.56 (≈ 7.64 µM) |
| COc1ccccc1C(=O)NNC(=O)c1ccc(-c2ccc(SC)cc2)o1 |  | 12.5 (≈ 32.7 µM) |
| O=C(NNC(=O)[C@H](Cc1ccc(O)cc1)NC(=O)c1ccc(-c2ccccc2)o1)c1ccc(Br)cc1 | 16.3 | 0.78 (≈ 1.42 µM) |
| O=C(NNC(=O)[C@H](Cc1ccc(O)cc1)NC(=O)c1ccc(-c2ccc(F)cc2)o1)c1ccc(Br)cc1 |  | 25 (≈ 44.1 µM) |
| O=C(NNC(=O)[C@H](Cc1ccc(O)cc1)NC(=O)c1ccc(-c2ccc(F)cc2)s1)c1ccc(F)cc1 | 22.9 | 6.25 (≈ 12 µM) |
| COc1ccc(C(=O)NNC(=O)[C@H](Cc2ccc(O)cc2)NC(=O)c2ccc(-c3ccc(OC)cc3)o2)cc1 | 29.9 | 0.78 (≈ 1.47 µM) |
| COc1ccc(C(=O)NNC(=O)[C@H](Cc2ccc(O)cc2)NC(=O)c2ccc(-c3ccc(F)cc3)s2)cc1 | 23.6 | 1.56 (≈ 2.92 µM) |
| O=C(N[C@@H](Cc1ccc(O)cc1)C(=O)NNC(=O)c1ccccc1F)c1ccc(-c2ccc(F)cc2)s1 |  | > 25 |
| COc1ccc(C(=O)NNC(=O)[C@H](Cc2ccc(O)cc2)NC(=O)c2ccc(Br)o2)cc1 |  | > 25 |
| CSc1ccc(-c2ccc(C(=O)NNC(=O)c3ccc(F)cc3)o2)cc1 | 27 | 0.39 (≈ 1.05 µM) |
| CSc1ccc(-c2ccc(C(=O)NNC(=O)c3ccc(C(C)(C)C)cc3)o2)cc1 | 10.6 | 6.25 (≈ 15.3 µM) |
| O=C(NNC(=O)[C@H](Cc1ccc(O)cc1)NC(=O)c1ccc(Br)o1)c1ccc(F)cc1 |  | > 25 |
| CSc1ccc(-c2ccc(C(=O)NNC(=O)c3ccc(O)cc3)o2)cc1 | 17.4 | 0.78 (≈ 2.12 µM) |
| Cc1ccc(C(=O)NNC(=O)[C@H](Cc2ccc(O)cc2)NC(=O)c2ccc(-c3ccccc3)o2)cc1 |  | 12.5 (≈ 25.9 µM) |

Reference: ChEMBL document CHEMBL4270581, “Synthesis of carbohydrazides and carboxamides as anti-tubercular agents” (Eur J Med Chem, 2018)
